Tested on: ECL cells
Experiment: labelling index of ECL cells (HDC+PCNA double labelling) in oxyntic mucosa after 14 days once-daily treatment
Assay type: in vivo, male SPF Wistar rats
Conditions: rats, 25 mg/kg p.o. once daily for 14 days; compared with control group
Protocol: This was measured according to the following experimental protocol. 40 male SPF Wistar rats (200 g) were divided into 4 treatment groups and 2 strata. The treatment of the 20 rats in the second stratum started 2 weeks after the treatment of the first stratum. The design of the study was completely randomised double blind with individual blinding; all rats were placed in a separate cage. Animals had continuous access to water and food. Animals were treated once daily during 14 days: [table] After removal of the fundus, the stomach were rinsed with phosphate buffered saline prior to fixation with 4% formalin in Millonig buffer. After 4 hours immersion in fixative solutions at room temperature, tissue was rinsed in phosphate buffered saline (PBS), dehydrated and embedded in paraffin using the Leitz paraffin embedding station (Leitz TP 1050; Germany) dehydration module and paraffin embedding module (Leitz EG 1160; Germany). Cross sections (3 μm thick) of the oxyntic part of the stomach were made at 3 levels, each separated by a distance of 400 μm. The following indirect immunofluorescence labeling method was used: removal of paraffin and rehydratation of the sections followed by a blocking step primary antibodies: polyclonal guinea pig anti-histidine decarboxylase, 1/2000 (from Euro-Diagnostica) and monoclonal mouse anti PCNA 1/2500 (Clone PC10 from Sigma). […]

In the case of COCCCOc1ccnc(C[S+]([O-])c2nc3ccccc3[nH]2)c1C (stereo not shown) [rebeprazole, 2-[[4-(3-methoxypropoxy)-3-methylpyridin-2-yl]methylsulfinyl]-1H-benzimidazole], the “labelling index of ECL cells, Mann-Whitney test P, treated group versus control group” value is reported as 0.04.

Reference: patent US20030195240A1, “Pharmaceutical compositions comprising proton pump inhibitors and gastrin/cholecystokinin receptor ligands” (priority 2000, published 2003)
